Values of other authors as cited in CN114831954A, “一种左氧氟沙星片” (priority 2022, dated 2022).

Experiments:
[1] = background statement
[2] = tested on: Gram-positive and Gram-negative bacteria [革兰氏阳性菌和阴性菌]; conditions: background statement
[3] = in vivo, po

CC1COc2c(N3CCN(C)CC3)c(F)cc3c(=O)c(C(=O)O)cn1c23 (stereo not shown) [氧氟沙星]
biological half-life [1]: ~6 h
antibacterial effect ([2]; Gram-positive and Gram-negative bacteria): 对革兰氏阳性菌和阴性菌均有光谱的效果
concentration dependence of antibacterial effect [2]: 具有明显的浓度依赖性
gastrointestinal adverse reactions [3]: 有胃肠不良反应
